From ChEMBL document CHEMBL1909046, “DrugMatrix in vitro pharmacology data” come the findings set out here.

In assay [1] the target is Sodium-dependent noradrenaline transporter (Homo sapiens, UniProt P23975). Put plainly: DRUGMATRIX: Norepinephrine Transporter radioligand binding (ligand: [125I] RTI-55). It counts as cell membranes, MDCK, Membrane. To be noted: Not Active = under 50% inhibition at 10 µM.
Assay [2] can be described thus: DRUGMATRIX: Serotonin (5-Hydroxytryptamine) 5-HT3 radioligand binding (ligand: [3H] GR-65630). It counts as cell membranes, Membrane. To be noted: hek293; Not Active = under 50% inhibition at 10 µM.
The target of assay [3] is T1, Substance-K receptor (Homo sapiens, UniProt P21452). Also: in other assays of this panel Not Active means under 50% inhibition at 10 µM.
T1 sequence (P21452 whole entry): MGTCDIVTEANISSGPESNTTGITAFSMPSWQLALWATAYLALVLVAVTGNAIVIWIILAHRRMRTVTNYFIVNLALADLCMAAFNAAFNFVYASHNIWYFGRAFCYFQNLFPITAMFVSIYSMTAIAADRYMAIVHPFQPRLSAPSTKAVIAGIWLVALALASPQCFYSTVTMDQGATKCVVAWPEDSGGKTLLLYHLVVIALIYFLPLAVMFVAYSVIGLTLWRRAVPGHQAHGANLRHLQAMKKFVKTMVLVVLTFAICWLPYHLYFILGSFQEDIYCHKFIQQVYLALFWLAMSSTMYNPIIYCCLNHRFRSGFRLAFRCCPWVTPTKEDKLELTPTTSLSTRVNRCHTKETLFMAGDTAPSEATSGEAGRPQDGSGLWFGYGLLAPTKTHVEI
It counts as cell membranes, CHO, Membrane. To be noted: cho.

The target in assay [4] is T2, Muscarinic acetylcholine receptor M5 (Homo sapiens, UniProt P08912). Also: in other assays of this panel Not Active means under 50% inhibition at 10 µM.
T2 sequence (P08912 whole entry): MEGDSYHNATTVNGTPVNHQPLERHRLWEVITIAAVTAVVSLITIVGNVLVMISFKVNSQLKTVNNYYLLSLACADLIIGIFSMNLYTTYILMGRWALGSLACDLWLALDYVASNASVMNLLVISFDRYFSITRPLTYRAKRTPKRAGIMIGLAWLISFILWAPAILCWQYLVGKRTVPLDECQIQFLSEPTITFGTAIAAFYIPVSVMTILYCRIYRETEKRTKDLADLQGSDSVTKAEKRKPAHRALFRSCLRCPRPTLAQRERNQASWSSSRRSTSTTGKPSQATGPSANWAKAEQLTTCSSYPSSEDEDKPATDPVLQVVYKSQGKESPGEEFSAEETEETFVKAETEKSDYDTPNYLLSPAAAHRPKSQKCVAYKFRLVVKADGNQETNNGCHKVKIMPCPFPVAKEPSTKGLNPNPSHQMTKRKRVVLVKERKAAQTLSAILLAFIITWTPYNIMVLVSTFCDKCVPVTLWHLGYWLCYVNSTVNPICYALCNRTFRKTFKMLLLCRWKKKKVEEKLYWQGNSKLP
It counts as cell membranes, CHO-K1, Membrane. To be noted: cho-k1.

For assay [5], the target named is Protein kinase C alpha type (Homo sapiens, UniProt P17252). In kind it is cell-based. The note with it: sf9.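 Also: inhibition of PKCalpha kinase activity measured in an enzyme assay with histone as the phosphorylation substrate; in other assays of this panel Not Active means under 50% inhibition at 10 µM.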
The target of assay [6] is T3, 5-hydroxytryptamine receptor 1A (Rattus norvegicus, UniProt P19327). Also: in other assays of this panel Not Active means under 50% inhibition at 10 µM.
T3 sequence (P19327 whole entry): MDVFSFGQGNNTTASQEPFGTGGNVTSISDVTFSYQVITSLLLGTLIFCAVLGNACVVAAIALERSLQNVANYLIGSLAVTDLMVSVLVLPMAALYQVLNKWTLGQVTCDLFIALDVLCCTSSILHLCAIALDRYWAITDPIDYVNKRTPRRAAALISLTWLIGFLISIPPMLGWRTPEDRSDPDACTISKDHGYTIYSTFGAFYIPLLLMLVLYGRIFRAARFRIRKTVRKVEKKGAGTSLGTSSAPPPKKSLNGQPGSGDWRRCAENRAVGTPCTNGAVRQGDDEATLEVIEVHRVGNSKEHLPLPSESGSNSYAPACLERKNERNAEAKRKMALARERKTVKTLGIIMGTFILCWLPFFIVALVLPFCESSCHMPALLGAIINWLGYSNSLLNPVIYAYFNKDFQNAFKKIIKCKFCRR
It counts as cell membranes, CHO-K1, Membrane. To be noted: cho-k1.

Sodium-dependent noradrenaline transporter, sequence (P23975 whole entry): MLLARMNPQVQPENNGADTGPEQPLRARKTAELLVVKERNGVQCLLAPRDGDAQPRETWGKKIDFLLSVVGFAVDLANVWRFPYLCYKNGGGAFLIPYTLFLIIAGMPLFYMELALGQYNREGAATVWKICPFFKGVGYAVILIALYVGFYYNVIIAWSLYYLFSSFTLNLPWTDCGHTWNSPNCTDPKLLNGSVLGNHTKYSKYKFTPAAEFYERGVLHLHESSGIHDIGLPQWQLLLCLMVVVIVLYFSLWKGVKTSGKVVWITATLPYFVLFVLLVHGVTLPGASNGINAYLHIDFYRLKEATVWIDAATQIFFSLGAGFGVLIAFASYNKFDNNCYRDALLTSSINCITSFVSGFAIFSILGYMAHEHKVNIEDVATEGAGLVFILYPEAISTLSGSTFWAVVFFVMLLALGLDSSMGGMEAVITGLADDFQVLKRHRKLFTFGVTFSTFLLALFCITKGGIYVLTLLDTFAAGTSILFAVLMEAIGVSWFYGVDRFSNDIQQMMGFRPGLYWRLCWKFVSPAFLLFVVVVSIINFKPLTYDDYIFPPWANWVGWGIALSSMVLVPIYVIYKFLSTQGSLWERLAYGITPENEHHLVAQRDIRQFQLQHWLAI

As to CHROMIC CHLORIDE, the IC50 result in assay [1] (mdck), in assay [2], in assay [3], in assay [4], in assay [5] and in assay [6] was “Not Active” throughout. Further, the Ki entry in assay [1] (mdck), in assay [2], in assay [3], in assay [4], in assay [5] and in assay [6] was “Not Active” each time.

As to `Nc1ccc(Cc2ccc(N)cc2)cc1`, the IC50 result in assay [1] (mdck), in assay [2], in assay [3], in assay [4], in assay [5] and in assay [6] was “Not Active” each time. The Ki result in assay [2] is on record as “Not Active”.

For `COc1cc([C@@H]2c3cc4c(cc3[C@H](O)[C@H]3COC(=O)[C@H]23)OCO4)cc(OC)c1OC` [PODOFILOX], the IC50 result in assay [1] (mdck), in assay [2], in assay [3], in assay [4], in assay [5] and in assay [6] was “Not Active” each time. In assay [2], the Ki entry is “Not Active”.

Consider `OC[C@H]1OC2C3[C@@H](CO)OC(O[C@H]4[C@H](O)[C@@H](O)[C@@H](O[C@H]5[C@H](O)[C@@H](O)[C@@H](O[C@H]6[C@H](O)[C@@H](O)[C@@H](O[C@H]7[C@H](O)[C@@H](O)[C@@H](O[C@H]8[C@H](O)[C@@H](O)[C@@H](O[C@H]9[C@H](O)[C@@H](O)C(OC1[C@H](O)[C@H]2O)O[C@@H]9CO)O[C@@H]8CO)O[C@@H]7CO)O[C@@H]6CO)O[C@@H]5CO)O[C@@H]4CO)[C@H](O)[C@H]3O`, for which the half-maximal inhibitory concentration (IC50) result in assay [1] (mdck), in assay [2], in assay [3], in assay [4], in assay [5] and in assay [6] was “Not Active” throughout. The Ki result in assay [2] was “Not Active”.

Take `Nc1ccc(C(=O)O)c(O)c1` [AMINOSALICYLIC ACID]: the IC50 entry in assay [1] (mdck), in assay [2], in assay [3], in assay [4], in assay [5] and in assay [6] was “Not Active” each time. The Ki entry in assay [2] was “Not Active”.

In the case of `O=c1[nH]cnc2c1ncn2[C@H]1CC[C@@H](CO)O1` [DIDANOSINE], the IC50 result in assay [1] (mdck), in assay [2], in assay [3], in assay [4], in assay [5] and in assay [6] was “Not Active” each time. In addition, the inhibition constant (Ki) result in assay [2] was “Not Active”.

Consider `CCCCCCNC(=O)n1cc(F)c(=O)[nH]c1=O` [CARMOFUR], for which the IC50 result in assay [1] (mdck), in assay [2], in assay [3], in assay [4], in assay [5] and in assay [6] was “Not Active” each time. Besides, the Ki result in assay [2] is reported as “Not Active”.

Take `C#C[C@]1(O)CC[C@H]2[C@@H]3CCC4=CC(=O)CC[C@@H]4[C@H]3CC[C@@]21C` [NORETHINDRONE]: the IC50 result in assay [1] (mdck), in assay [2], in assay [3], in assay [4], in assay [5] and in assay [6] was “Not Active” throughout. The Ki entry in assay [2] is given as “Not Active”.

Take `Cl.NC[C@H]1CC[C@H](C(=O)Oc2ccc(CCC(=O)O)cc2)CC1` [CETRAXATE HYDROCHLORIDE]: the half-inhibitory concentration (IC50) result in assay [1] (mdck), in assay [2], in assay [3], in assay [4], in assay [5] and in assay [6] was “Not Active” each time. Further, the Ki entry in assay [2] is on record as “Not Active”.

As for `CC(C)Cn1cnc2c(N)nc3ccccc3c21` [IMIQUIMOD], the concentration for half-maximal inhibition (IC50) result in assay [1] (mdck), in assay [2], in assay [3], in assay [4], in assay [5] and in assay [6] was “Not Active” in each case. Moreover, the Ki entry in assay [2] was “Not Active”.

As to `O=C1CN(/N=C/c2ccc([N+](=O)[O-])o2)C(=O)N1` [NITROFURANTOIN], the IC50 entry in assay [1] (mdck), in assay [2], in assay [3], in assay [4], in assay [5] and in assay [6] was “Not Active” throughout. For the same molecule, in assay [2], the Ki entry is reported as “Not Active”.

In the case of `Cc1c(N)nc([C@H](CC(N)=O)NC[C@H](N)C(N)=O)nc1C(=O)N[C@H](C(=O)N[C@H](C)[C@@H](O)[C@H](C)C(=O)N[C@H](C(=O)NCCc1nc(-c2nc(C(=O)NCCC[S+](C)C)cs2)cs1)[C@@H](C)O)[C@@H](O[C@@H]1O[C@@H](CO)[C@@H](O)[C@H](O)[C@@H]1O[C@H]1O[C@H](CO)[C@@H](O)[C@H](OC(N)=O)[C@@H]1O)c1c[nH]cn1.[Br-]` [BLEOMYCIN A2], the IC50 entry in assay [1] (mdck), in assay [2], in assay [3], in assay [4], in assay [5] and in assay [6] was “Not Active” each time. Besides, the Ki result in assay [2] was “Not Active”.

As for `CC(C)Cc1ccc([C@H](C)C(=O)O)cc1` [DEXIBUPROFEN], the IC50 result in assay [1] (mdck), in assay [2], in assay [3], in assay [4], in assay [5] and in assay [6] was “Not Active” throughout. Also, the Ki result in assay [2] is “Not Active”.

As for `NS(=O)(=O)c1cc(C(=O)O)c(NCc2ccco2)cc1Cl` [FUROSEMIDE], the IC50 entry in assay [1] (mdck), in assay [2], in assay [3], in assay [4], in assay [5] and in assay [6] was “Not Active” in each case. In assay [2], the inhibition constant Ki result was “Not Active”.

As for `C[C@H]1C[C@H]2[C@@H]3CCC4=CC(=O)C=C[C@]4(C)[C@@]3(F)[C@@H](O)C[C@]2(C)[C@@]1(O)C(=O)CO` [BETAMETHASONE], the IC50 entry in assay [1] (mdck), in assay [2], in assay [3], in assay [4], in assay [5] and in assay [6] was “Not Active” throughout. For the same molecule, the Ki entry in assay [2] is reported as “Not Active”.

Consider `COC(=O)C[C@](O)(CCC(C)(C)O)C(=O)O[C@@H]1C(OC)=C[C@]23CCCN2CCc2cc4c(cc2[C@H]13)OCO4` [HARRINGTONINE], for which the IC50 entry in assay [1] (mdck), in assay [2], in assay [3], in assay [4], in assay [5] and in assay [6] was “Not Active” throughout. Also, the Ki entry in assay [2] is listed as “Not Active”.

For the molecule `CC(C)(c1ccc(O)cc1)c1ccc(O)cc1` [BISPHENOL A], the IC50 is 16.6 µM in assay [1] (read-out: IC50); “Not Active” in assay [2]; “Not Active” in assay [3]; “Not Active” in assay [4]; “Not Active” in assay [5]; “Not Active” in assay [6]. Also, the Ki is 16.5 µM in assay [1] (read-out: Ki) and “Not Active” in assay [2].

Take `CCN1CCN(C(=O)N[C@@H](C(=O)N[C@@H]2C(=O)N3[C@@H]2SC(C)(C)[C@@H]3C(=O)O)c2ccccc2)C(=O)C1=O` [PIPERACILLIN]: the IC50 result in assay [1] (mdck), in assay [2], in assay [3], in assay [4], in assay [5] and in assay [6] was “Not Active” in each case. Also, the Ki result in assay [2] is “Not Active”.
